Measurements: patent US4551472A, “Unsymmetrical bis-carbamate compounds” (priority 1984, dated 1985)
Values after ≈ are worked out from the molar mass of the structure shown.

Tests used:
[1] = tested on: southern armyworm (Spodopera eridania, (Cram.)); test: whole plant or invertebrate; conditions: Spodoptera eridania, read-out: Biological Activity in LD50's: Southern Armyworm
Method: (§1) The thus-prepared stock suspension contained 0.5 percent by weight of compound. The test concentrations in parts per million by weight employed in the tests described hereinbelow were obtained by appropriate dilutions of the stock suspension with water. The test procedures were as follows:
Larvae of the southern armyworm (Spodopera eridania, (Cram.)), reared on Tendergreen bean plants at a temperature of 80±5° F. and a relative humidity of 50±5 percent, constituted the test insects.
Potted Tendergreen bean plants of standard height and age were placed on a revolving turntable and sprayed with 100-110 milliliters of test compound formulation by use of a DeVilbiss spray gun set at 10 psig air pressure. This application, which lasted 25 seconds, was sufficient to wet plants to run-off. As a control, 100-110 milliliters of a water-acetone-emulsifier solution containing no test compound were also sprayed on infested plants. When dry, the paired leaves were separated and each one was placed in a 9 centimeter Petri dish lined with moistened filter paper. Five randomly selected larvae were introduced into each dish and the dishes were closed. The closed dishes were labeled and held at 80°-85° F. for three days. Although the larvae could easily consume the whole leaf within twenty-four hours, no more food was added. Larvae which were unable to move the length of the body, even upon stimulation by prodding, were considered dead. Percent mortality was recorded for various concentration levels.
(§2) In these tests the pesticidal activity of the compounds at the indicated dosage rate against aphid, mite, Southern Armyworm (SA), Mexican Bean Beetle (MBB), and house fly was rated as follows:
(§3) Several of the unsymmetrical bis-carbamoyl sulfide compounds of this invention were tested against related known compounds.

[2] = tested on: two-spotted mite (Tetranychus urticae Koch); test: whole plant or invertebrate; conditions: foliar, read-out: Biological Activity in LD50's: Mite
Method: as §1
Adults and nymphal stage of the two-spotted mite (Tetranychus urticae Koch), reared on Tendergreen bean plants at a temperature of 80±5° F. and at a relative humidity of 50±5 percent, were the test organisms. Infested leaves from a stock culture were placed on the primary leaves of two bean plants six to eight inches in height, growing in a two-and-a-half inch clay pot. 150-200 Mites, a sufficient number for testing, transferred from the excised leaves to the fresh plants in a period of twenty-four hours. Following the twenty-four hour transfer period, the excised leaves were removed from the infested plants. […] The potted plants (one pot per compound) were placed on a revolving turntable and sprayed with 100-110 milliliters of test compound formulation by use of a DeVilbiss spray gun at 40 psig. air pressure. This application, which lasted 25 seconds, was sufficient to wet the plants to run-off. As a control, 100-110 milliliters of a water solution containing acetone and emulsifier in the same concentrations as the test compound formulation, but containing no test compound, were also sprayed on infested plants. The sprayed plants were held at a temperature of 80±5° F. and a 50±5 percent relative humidity for six days, after which a mortality count of motile forms was made. Microscopic examination for motile forms was made on the leaves of the test plants. Any individual which was capable of locomotion upon prodding was considered living.
as §2, §3

[3] = tested on: Mexican bean beetle (Epilachna varivestis, Muls.); test: whole plant or invertebrate; conditions: read-out: Biological Activity in LD50's: MBB
Method: as §1
Fourth instar larvae of the Mexican bean beetle (Epilachna varivestis, Muls.), reared on Tendergreen bean plants at a temperature of 80±5° F. and 50±5 percent relative humidity, were the test insects.
Potted Tendergreen bean plants of standard height and age were placed on a revolving turntable and sprayed with 100-110 milliliters of test compound formulation by use of a DeVilbiss strapy gun set at 10 psig air pressure. This application, which lasted 25 seconds, was sufficient to wet plants to run-off. As a control, 100-110 milliliters of a water-acetone-emulsifier solution containing no test compound were also strayed on infested plants. When dry, the paired leaves were separated and each was placed in a 9 centimeter Petri dish lined with moistened filter paper. Five randomly selected larvae were introduced into each dish, and the dishes were closed. The closed dishes were labeled and held at a temperature of 80±5° F. for three days. Although the larvae could easily consume the leaf within 24 to 48 hours, no more food was added. Larvae which were unable to move the length of the body, even upon stimulation, were considered dead.
as §2, §3

[4] = tested on: bean aphid (Aphis fabae Scop.); test: whole plant or invertebrate; conditions: foliar, read-out: Biological Activity in LD50's: Aphid
Method: as §1
Adults and nymphal stages of the bean aphid (Aphis fabae Scop.) reared on potted dwarf nasturtium plants at 65°-70° F. and 50-70 percent relative humidity, consistuted with test insects. For testing purposes, the number of aphids per pot was standardized to 100-150 by trimming plants containing excess aphids.
The potted plants (one pot per compound tested) infested with 100-150 aphids, were placed on a revolving turntable and sprayed with 100-110 milliliters of test compound formulation by use of a DeVilbiss spray gun set at 40 psig. air pressure. This application, which lasted 25 seconds, was sufficient to wet the plants to run-off. As a control, 100-110 milliliters of a water-acetone-emulsifier solution containing no test compound were also sprayed on infested plants. […] Temperature and humidity in the test room during the 24 hour holding period were 65°-70° F. and 50-70 percent, respectively. Aphids which fell onto the paper and were unable to remain standing after being uprighted were considered dead. Aphids remaining on the plants were observed closely for movement and those which were unable to move the length of the body upon stimulation by prodding were considered dead. Percent mortality was recorded for various concentration levels.
as §2, §3

[5] = tested on: house flies (Musca domestica, L.); test: whole plant or invertebrate; conditions: read-out: Biological Activity in LD50's: Housefly
Description: as §1
The flies were immobilized individuals, males and females, were transferred to a cage consisting of a standard food strainer about five inches in diameter which was inverted over a wrapping-paper-covered surface. […] Ten milliliters of the test formulation were added to a souffle cup containing a one-inch square of an absorbent cotton pad. This bait cup was introduced and centered on the blotting paper under the food strainer prior to admitting the anesthetized flies. The caged flies were allowed to feed on the bait for twenty-four hours, at a temperature of 80±5° F. and the relative humidity of 50±5 percent.
as §2, §3

Soy = test: Phytotoxicity Test, soy; conditions: 2500 ppm spray, ten days
Method: (§4) Experiments were also conducted to determine the phytotoxicity of representative compounds with respect to healthy fresh plants. […] The test plants were sprayed in accordance with the procedure described above for the Mite Foliage Spray Test so as to deliver approximately 100 milliliters of test solution to the leaves of each plant tested. The sprayed plants and controls were set aside for approximately one hour to allow the foliage to dry and were then placed in the greenhouse. After ten days the plants were visually inspected to determine the extent of foliage injury. A rating of 1 indicates no perceptible injury; 5 indicates the plant was dead and ratings of 2, 3 and 4 indicate intermediate degrees of injury based upon the number and extent to which leaves were injured.

Tom = test: Phytotoxicity Test, tomato; conditions: 2500 ppm spray, ten days
Method: as §4

rat = test: Mammalian Toxicity, peroral toxicity to rat; assay type: in vivo
Method: Certain compounds were also evaluated to determine their peroral toxicity to mammals by conventional methods. The representative animal selected for this experiment was the rat.

Corn = test: Phytotoxicity Test, corn; conditions: 2500 ppm spray, ten days
Method: as §4

Cotton = test: Phytotoxicity Test, cotton; conditions: 2500 ppm spray, ten days
Method: as §4

Bean = test: Phytotoxicity Test, bean; conditions: 2500 ppm spray, ten days
Method: as §4

[6] = tested on: root-knot nematode, Meloidogyne incognita var. acrita; test: Nematocide Test; note: key: 1: severe galling, equal to untreated plants; 2: moderate galling; 3: light galling; 4: very light galling; 5: no galling, perfect control; assay type: in vivo; conditions: 3.33 m.g. per jar; cucumber, approximately 3 weeks
Method in brief: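 Larvae hatched in soil inoculated with chopped infested cucumber roots (one week, room temperature), then treated with acetone/emulsifier/water formulation, primary screen 3.33 mg compound per jar, and held capped 48 h. Soil then potted and sown to cucumber for about 3 weeks; root galling rated visually.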

With CNC(=O)Oc1ccc(C(C)(C)C)cc1 the LC50 [1] was > 500 µg/mL, the LC50 [2] was > 500 µg/mL and the LC50 [3] was > 500 µg/mL. The LC50 [4] was > 500 µg/mL and the LC50 [5] was > 500 µg/mL.

CN(SN(C)C(=O)ON=C1SC(C)(C)C(=O)N1C)C(=O)ON=C1CSCCS1 [drawing 88] showed an LC50 [1] of 29 µg/mL (≈ 62 µM), an LC50 [2] of 6 µg/mL (≈ 12.8 µM) and an LC50 [3] of 22 µg/mL (≈ 47 µM). The LC50 [4] was > 500 µg/mL and the LC50 [5] was 2 µg/mL (≈ 4.28 µM).

With CNC(=O)ON=C1SC(C)(C)C(=O)N1C the LC50 [1] was 30 µg/mL (≈ 130 µM), the LC50 [2] was 280 µg/mL (≈ 1210 µM) and the LC50 [3] was 6 µg/mL (≈ 25.9 µM). For the same compound, the LC50 [4] was 160 µg/mL (≈ 692 µM) and the LC50 [5] was 25 µg/mL (≈ 108 µM).

CSC(C)=NOC(=O)N(C)SN(C)C(=O)Oc1cccc(C(C)C)c1 [drawing 83] gave an LC50 [1] of 9 µg/mL (≈ 23.3 µM), an LC50 [2] of 500 µg/mL (≈ 1300 µM) and an LC50 [3] of 9 µg/mL (≈ 23.3 µM). For the same compound, the LC50 [4] was 50 µg/mL (≈ 130 µM) and the LC50 [5] was 15 µg/mL (≈ 38.9 µM).

“N-[1-Methylthioacetaldehyde O-(N-methylcarbamoyl)oxime]N-[3-(and 4)-isopropylphenyl-(N-methylcarbamoyloxy)]sulfide [XVII]” was tested, and the “Phytotoxicity: Soy” value (Soy) was 1, the “Phytotoxicity: Tom” value (Tom) was 1 and the “A.O. Rat LD50” value (rat) was 126.0 Mg/Kg. The “Phytotoxicity: Corn” value (Corn) was 1, the “Phytotoxicity: Cotton” value (Cotton) was 1 and the “Phytotoxicity: Bean” value (Bean) was 1. The “Biological Activity: Nem (nematode, galling rating)” value [6] was 4.

In the case of CN(SN(C)C(=O)Oc1cccc2ccccc12)C(=O)Oc1cccc2ccccc12, the LC50 [1] is reported as 80 µg/mL (≈ 185 µM), the LC50 [2] is reported as > 500 µg/mL and the LC50 [3] is reported as 6 µg/mL (≈ 13.9 µM). The LC50 [4] was > 500 µg/mL and the LC50 [5] was > 500 µg/mL.

With CN(SN(C)C(=O)Oc1ccc(C(C)(C)C)cc1)C(=O)Oc1ccc(C(C)(C)C)cc1 the LC50 [1] was > 500 µg/mL, the LC50 [2] was > 500 µg/mL and the LC50 [3] was > 500 µg/mL. The LC50 [4] was > 500 µg/mL and the LC50 [5] was > 500 µg/mL.

CSC(C)=NOC(=O)N(C)SN(C)C(=O)Oc1cccc2ccccc12 [drawing 86] was tested, and the LC50 [1] was 6 µg/mL (≈ 15.2 µM), the LC50 [2] was 500 µg/mL (≈ 1270 µM) and the LC50 [3] was 3 µg/mL (≈ 7.62 µM). It also gave an LC50 [4] of 8 µg/mL (≈ 20.3 µM) and an LC50 [5] of 24 µg/mL (≈ 61 µM).

With CSC(C)=NOC(=O)N(C)SN(C)C(=O)Oc1ccc(C(C)(C)C)cc1 [drawing 80] the LC50 [1] was 7 µg/mL (≈ 17.5 µM), the LC50 [2] was > 500 µg/mL and the LC50 [3] was 9 µg/mL (≈ 22.5 µM). The LC50 [4] was 40 µg/mL (≈ 100 µM) and the LC50 [5] was 35 µg/mL (≈ 87.6 µM).

CC(C)c1cccc(OC(=O)N(C)SN(C)C(=O)Oc2cccc(C(C)C)c2)c1 was tested, and the LC50 [1] was 62 µg/mL (≈ 149 µM), the LC50 [2] was > 500 µg/mL and the LC50 [3] was 11 µg/mL (≈ 26.4 µM). It also gave an LC50 [4] of 70 µg/mL (≈ 168 µM) and an LC50 [5] of 150 µg/mL (≈ 360 µM).
